According to patent publication US7645740B2, “Peptide sequence found in Laminin 5 for treating skin impairments” (Laboratoires d'Anjou Centre National de la Recherche …, priority 2004, dated 2010):

Legend:
NHK-old = test: Cell proliferation test (XTT), NHK-old; type: cell-based, human; conditions: peptide 0.05% and 0.1%, 5th hour
Method: NHK-10 years and NHK-71 years were seeded in 96-well plates at a rate of 10,000 cells per well. After 24 hours, the culture medium was removed and replaced with serum-free medium containing the peptide quantities given in the graphs and reagent XTT. The plates were then placed in the incubator at 37° C. and absorbance readings were taken at 1 h, 2 h, 3 h, 4 h and 5 h. Peptide-free controls were carried out on the same plate.
The effect of the peptide on cell proliferation was analysed with the aid of a calorimetric test (Cell Proliferation Kit XTT, Roche Diagnostics, Meylan, France) on the cells use for the cell adhesion test, i.e. HT1080, A431, HBL100 cells and normal human keratinocytes from young and elderly individuals.
The chemical reaction used in the test is based on the production of NADPH by living cells, leading to the reduction of yellow tetrazolium XTT salts to orange formazan salts. Absorbance was measured at 490 nm using an ELISA plate reader. Cells were seeded in 96-well plates at a rate of 10,000 cells per well (6 wells/condition) in KBM-2 culture medium. After 24 hours in culture at 37° C. with 5% CO2, the culture medium was removed and replaced with serum-free medium containing the peptide quantities given in the graphs and the test reagent. The plates were then placed in the incubator at 37° C. and absorbance readings were taken at 1 h, 2 h, 3 h, 4 h and 5 h. […]

[1] = tested on: HBL100 cells (human mammary epithelium); test: Cell adhesion test to immobilized peptides, HBL100; type: cell-based
Method: (§1) Dose-dependent cell adhesion of cell line HBL100 to various peptides 1, 2 and 3. The peptides were immobilized in 96-well plates at the concentrations given on the abscissa. 8×10^4 cells were deposited in each well and plates were incubated at 37° C. for 1 hour. After washing, attached cells were fixed and cell adhesion was measured as described in the methodology section.
(§2) Peptides 1, 2 and 3 were used for the cell adhesion experiments. A range of 7 decreasing concentrations (100 micrograms/ml, 50 micrograms/ml, 25 micrograms/ml, 12.5 micrograms/ml, 6.25 micrograms/ml, 3.125 micrograms/ml and 1.562 micrograms/ml) was made up by successive dilution in PBS (Phosphate Buffer Saline, KH2PO4 1.54 mM; Na2HPO4 1.42 mM; NaCl-131 mM) using a starting solution at a concentration of 1 mg/ml. These solutions were immediately distributed onto a 96-well culture plate (Greinher, Dutscher, Brumath, France) at a rate of 100 μl per well. Plates were then placed at +4° C. for 16 to 18 hours. The solutions were then removed by turning the plates and each well was saturated with a 1% PBS-BSA solution (bovine serum albumin). Three additional wells without the substrate underwent the same treatment and were used as blanks.
(§3) Epithelial cells were detached from the culture dishes using a trypsin/EDAT solution (0.05-0.02%) then suspended in DMEM medium without additives for the cell lines and in KBM-2 without additive for human keratinocytes. The number of seeded cells per well is given in the graphs (50,000 to 100,000 cells per well).
(§4) After cell seeding, the multi-well plates were placed in an incubator at 37° C. under 5% CO2. After incubation for 30 to 60 minutes, cells were observed under a phase contrast microscope in order to verify that the test was conducted correctly. The adhesion medium was then removed and each well was washed in a sterile PBS solution to remove non-adhering cells. The remaining cells, attached to the substrate, were then fixed using a solution of 1% glutaraldehyde in PBS for 15 minutes. The glutaraldehyde solution as removed and the cells were stained with a crystal violet solution diluted to 1% in distilled water for 30 minutes.
(§5) After rinsing in water several times, cells were permeabilized by means of a 0.02% triton solution for 15 minutes in order to solubilize the crystal violet. Absorbances were read at 570 nm using an ELISA plate reader (MR500, Dynatech, Guernsey, Channel Islands). Each experimental point was carried out in triplicate. The blank value represented the mean absorbance of 3 control wells (BSA). This was subtracted from each of the optical density values for the experimental points. We then calculated the mean for the three absorbance values for each of the triplicate samples.
The results are presented in the form of a graph with the absorbance values on the ordinate and the various substrate concentrations on the abscissa. Attached cells were photographed by phase contrast microscopy.
The following cells from epithelial cell lines were used initially (commonly used in preliminary studies on cell adhesion): • line HT1080 cells (human fibrosarcoma), American Type Culture Collection CCL-121. • line HB100 cells (human mammary epithelium), American Type Culture Collection HTB-124. • line A431 cells (skin epitheliods), American Type Culture Collection CRL-1555.

[2] = tested on: HT1080 cells (human fibrosarcoma); test: Cell adhesion test to immobilized peptides, HT1080; type: cell-based
Method: as §1, with “HT1080” for “HBL100”
Dose-dependent cell adhesion of HT1080 cells to various peptide TALRIRATYGEY (SEQ ID NO. 1). The peptides were immobilized in 96-well plates in the quantities given on the abscissa. 8×10^4 cells and 15×10^4 cells were deposited in each well and plates were incubated at 37° C. for 1 hour. After washing, attached cells were fixed and cell adhesion was measured as described in the methodology section. Cells were observed by phase contrast microscopy then photographed. Bar =50 μm
as §2, §3, §4
as §5, with “This was subtracted from each of the optical density values for the experimental points.” left out
The results are presented in the form of a graph with the absorbance values on the ordinate and the various substrate concentrations on the abscissa. […]
A second approach was taken in order to determine the minimum quantity of active peptide and the number of adhering cells was increased in order to obtain a confluent cell network. […]

Q: “TALRIRATYGEY (Human laminin 5) [Peptide 1]” was tested. Which “mean increase in proliferation compared to the control” value (NHK-old) did it give?
A: ≤ 7%

Q: What about the “cell adhesion to immobilized peptide” value ([1]; HBL100, 0 to 10 micrograms immobilized peptide, 8×10^4 cells per well, 1 hour 37° C., absorbance 570 nm) of the same sequence?
A: led to cell adhesion

Q: And the “immobilized peptide quantity at which adhesion occurred” value ([1]; HBL100, FIG. 2)?
A: 0.31 micrograms

Q: And the “immobilized peptide quantity at which maximum adhesion was achieved” value ([1]; HBL100, FIG. 2)?
A: 1.25 micrograms

Q: What about the “cell adhesion to immobilized peptide” value ([2]; HT1080, 0 to 10 micrograms immobilized peptide, 8×10^4 cells per well, 1 hour 37° C., absorbance 570 nm) of the same sequence?
A: led to cell adhesion

Q: And the “immobilized peptide quantity at which adhesion occurred” value ([2]; HT1080, FIG. 3)?
A: 0.15 micrograms

Q: And the “immobilized peptide quantity at which maximum adhesion was achieved” value ([2]; HT1080, FIG. 3)?
A: 0.15 micrograms
